Consider 33 compounds from the METLIN SMRT retention time set (Domingo-Almenara et al. 2019).

A short description of the data set: gradient 5% acetonitrile 3 min, to 50% in 2 min, to 85% in 15 min, held 3 min, 100 µL/min. The note with it: column: Zorbax Extend-C18 2.1 x 50 mm; eluents: water / acetonitrile, 0.1% formic acid. The method in brief: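 Each retention time is based on an adduct peak selected computationally and verified by manual inspection. Measurements used HPLC–quadrupole time-of-flight mass spectrometry in positive and negative ionization mode on mixtures of ~100 pure standards. Chromatography ran on a Zorbax Extend-C18 column (2.1 × 50 mm, 1.8 μm) at 100 μL/min with water and acetonitrile, each containing 0.1% formic acid, and dead and dwell volumes of 40 μL and 900 μL.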
Turning to `CCC1CN(C(=O)N2CCC(C(=O)NCCCOC(C)C)CC2)c2cc(C)ccc2O1` (stereo not drawn), the RP-LC retention time was determined as 873 s.

As for `Cc1ccccc1Cn1cnc2c(cnn2CCNC(=O)Cn2cnc3ccccc32)c1=O`, the RP-LC retention time is 578 s.

The compound `CC(C)NC(=O)C1(c2ccc(NC(=O)C(C)C)cc2)CCCCC1` came in with an RP-LC retention time of 851 s.

`CCOc1ccc(NC(=O)Cn2ncc3c(N4CCN(c5ccccn5)CC4)ncnc32)cc1` displayed an RP-LC retention time of 624 s.

`CNC(=O)Cc1csc(NC(=O)CN(C)c2nc3ccccc3s2)n1` registered an RP-LC retention time of 624 s.

In turn, `O=C(Nc1ccc(N2CCN(Cc3ccc(F)cc3)C2=O)nc1)c1cccs1` registered an RP-LC retention time of 570 s.

Compound `Cc1ccccc1NC(=O)c1sc(-c2cn(C)c3ncccc23)nc1C` came in with an RP-LC retention time of 890 s.

For `COc1ccc(-c2noc(-c3nc(Cc4ccccc4)no3)n2)cc1OC`, the RP-LC retention time amounted to 1100 s.

`Cc1cc(C)cc(S(=O)(=O)N2CCN(CCc3cn(C)c4ncccc34)CC2)c1` had an RP-LC retention time of 652 s.

As for `COC(=O)c1c(NCc2ccccc2C)c2cccc(Cl)c2[nH]c1=O`, the RP-LC retention time came out at 859 s.

`O=C(NCc1ccc2c(c1)OCCCO2)c1ccc(Br)cc1` registered an RP-LC retention time of 884 s.

Regarding `COC(=O)CNC(=O)NC(Cc1ccccc1)Cc1ccc2c(c1)OCO2` (stereo not drawn), the RP-LC retention time stood at 810 s.

For `O=S(=O)(c1cc(-c2nnc(C3CC3)o2)co1)N1CCc2ccccc2C1`, the RP-LC retention time was determined as 946 s.

`Cc1nn(-c2ccc(F)cc2)c(C)c1S(=O)(=O)N1CCC(C(=O)NC2CC2)CC1` registered an RP-LC retention time of 764 s.

The compound `COc1ccc(S(=O)(=O)Nc2cc(-c3cn4cccc(C)c4n3)ccc2C)cc1C` showed an RP-LC retention time of 707 s.

For the compound `Cc1noc(-c2ccccc2OC2CCNC2)n1` (stereo not drawn), the RP-LC retention time amounted to 590 s.

`CSc1ccc(-c2nc3cc(C)ccn3c2NC2CCCCC2)cc1` displayed an RP-LC retention time of 896 s.

In turn, `COc1ccccc1OCCN1C(=O)CCc2c(C)ncnc21` had an RP-LC retention time of 696 s.

In turn, `Cc1nn(-c2ccc(Cl)cc2)c(C)c1S(=O)(=O)N1CCC(C(=O)N2CCOCC2)CC1` showed an RP-LC retention time of 810 s.

`O=C(Cn1ncn2c(cc3cc(F)ccc32)c1=O)N1CCN(c2ccccn2)CC1` displayed an RP-LC retention time of 605 s.

As for `Cc1nnc(SCC(=O)N2CCOCC2)s1`, the RP-LC retention time turned out to be 560 s.

`CC(=O)Nc1nsc(N2CCC(C(=O)NCc3ccccc3F)CC2)n1` showed an RP-LC retention time of 659 s.

For the compound `CCOc1ccc(CNC(=O)COc2nc(CC)nc3oc(C)c(C)c23)cc1`, the RP-LC retention time was determined as 993 s.

Compound `CC(C)c1cc(C2CCCN2C(=O)NC2CCCC2)on1` (stereo not drawn) gave an RP-LC retention time of 823 s.

`CC(C(=O)O)c1ccc(N2Cc3ccccc3C2=O)cc1` (stereo not drawn) had an RP-LC retention time of 828 s.

On to `CC(C)N1C(=O)c2cccnc2Sc2cc(NC(=O)c3cccs3)ccc21`, for which the RP-LC retention time is 837 s.

`O=C(NCCOc1cccc2cccnc12)c1cnn(-c2ccccc2)n1` came in with an RP-LC retention time of 623 s.

`COc1ccc(N2CCN(C(=O)C3CC(=O)N(c4ccc5oc(C)nc5c4)C3)CC2)cc1` (stereo not drawn) returned an RP-LC retention time of 678 s.

Consider `Cc1ccc(-c2noc(-c3ccccc3S(=O)(=O)N3CC=C(c4ccccc4)CC3)n2)cc1`, for which the RP-LC retention time came out at 1350 s.

In the case of `CCN1CCN(C(=O)CCC(=O)N2CCc3c(c(C(=O)N4CCCC4)nn3C)C2)CC1`, the RP-LC retention time amounted to 563 s.

For `O=C(c1ccc(Br)cc1)N1CCc2nc(-c3ccc(Cl)cc3)ncc2C1`, the RP-LC retention time is 1160 s.

For the compound `Cc1ccc2c(c1)OCC(=O)N2Cc1nc(-c2cccc(F)c2)no1`, the RP-LC retention time turned out to be 1070 s.

Consider `CN1CCN(c2c3c(nc4nc(-c5ccccc5)nn24)CCCC3)CC1`, for which the RP-LC retention time was determined as 582 s.
